In PubChem BioAssay AID2060891 (Molecular Pharmacology Branch, DTP, NCI, 2025):

Test system: K98450-129-R-PDC complex spheroid growth, percent test/control
Test: Anticancer human tumor K98450-129-R-PDC patient-derived colon adenocarcinoma cell line growth inhibition [RAS]
Conditions: for IC50: curve of first compound; for viability, T/C: stronger effect = lower value; active = viability on the fitted dose curve at most 10% of control; inactive = the rest
Procedure, shortened: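 Multi-cell-type spheroids: tumor cells plus HUVEC endothelial cells and mesenchymal stem cells. RAS-pathway inhibitors were combined with targeted agents, each dosed in half-log steps down from clinical Cmax, or from 10 microM when Cmax was unknown.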

[1] = second compound 0.00316 µM, first compound 0.00316 µM
[2] = second compound 0.00316 µM, first compound 0.01 µM
[3] = second compound 0.00316 µM, first compound 0.0316 µM
[4] = second compound 0.00316 µM, first compound 0.1 µM
[5] = second compound 0.00316 µM, first compound 0.316 µM
[6] = second compound 0.00316 µM, first compound 1 µM
[7] = second compound 0.01 µM, first compound 0.00316 µM
[8] = second compound 0.01 µM, first compound 0.01 µM
[9] = second compound 0.01 µM, first compound 0.0316 µM
[10] = second compound 0.01 µM, first compound 0.1 µM
[11] = second compound 0.01 µM, first compound 0.316 µM
[12] = second compound 0.01 µM, first compound 1 µM
[13] = second compound 0.0316 µM, first compound 0.00316 µM
[14] = second compound 0.0316 µM, first compound 0.01 µM
[15] = second compound 0.0316 µM, first compound 0.0316 µM
[16] = second compound 0.0316 µM, first compound 0.1 µM
[17] = second compound 0.0316 µM, first compound 0.316 µM
[18] = second compound 0.0316 µM, first compound 1 µM
[19] = second compound 0.1 µM, first compound 0.00316 µM
[20] = second compound 0.1 µM, first compound 0.01 µM
[21] = second compound 0.1 µM, first compound 0.0316 µM
[22] = second compound 0.1 µM, first compound 0.1 µM
[23] = second compound 0.1 µM, first compound 0.316 µM
[24] = second compound 0.1 µM, first compound 1 µM
[25] = second compound 0.316 µM, first compound 0.00316 µM
[26] = second compound 0.316 µM, first compound 0.01 µM
[27] = second compound 0.316 µM, first compound 0.0316 µM
[28] = second compound 0.316 µM, first compound 0.1 µM
[29] = second compound 0.316 µM, first compound 0.316 µM
[30] = second compound 0.316 µM, first compound 1 µM
[31] = second compound 1 µM, first compound 0.00316 µM
[32] = second compound 1 µM, first compound 0.01 µM
[33] = second compound 1 µM, first compound 0.0316 µM
[34] = second compound 1 µM, first compound 0.1 µM
[35] = second compound 1 µM, first compound 0.316 µM
[36] = second compound 1 µM, first compound 1 µM
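Note: spheroids exposed to agents for seven days before the viability readout.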
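Throughout, for viability, T/C: luminescence used as a proxy for viable cell amount.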

CC1(C)CCC(Nc2ncc(C(F)(F)F)c(-c3c[nH]c4c(P(C)(C)=O)c(C#N)ccc34)n2)CN1 (stereo not drawn) + C#Cc1c(F)ccc2cc(O)cc(-c3ncc4c(N5CC6CCC(C5)N6)nc(OCC56CCCN5CC(F)C6)nc4c3F)c12
> 300 nM: IC50 (second compound 0.0316 µM) | IC50 (second compound 0.1 µM) | IC50 (second compound 0.316 µM) | IC50 (second compound 1 µM) | IC50 (second compound 3.16 µM) | IC50 (second compound 10 µM)
inactive: viability, T/C (second compound 0.0316 µM, first compound 0.000949 µM) 102% | viability, T/C (second compound 0.0316 µM, first compound 0.003 µM) 103% | viability, T/C (second compound 0.0316 µM, first compound 0.00949 µM) 100% | viability, T/C (second compound 0.0316 µM, first compound 0.03 µM) 105% | viability, T/C (second compound 0.0316 µM, first compound 0.0949 µM) 88.5% | viability, T/C (second compound 0.0316 µM, first compound 0.3 µM) 58.6% | viability, T/C (second compound 0.1 µM, first compound 0.000949 µM) 107% | viability, T/C (second compound 0.1 µM, first compound 0.003 µM) 105% | viability, T/C (second compound 0.1 µM, first compound 0.00949 µM) 111% | viability, T/C (second compound 0.1 µM, first compound 0.03 µM) 100% | viability, T/C (second compound 0.1 µM, first compound 0.0949 µM) 89.3% | viability, T/C (second compound 0.1 µM, first compound 0.3 µM) 66.6% | viability, T/C (second compound 0.316 µM, first compound 0.000949 µM) 111% | viability, T/C (second compound 0.316 µM, first compound 0.003 µM) 105% | viability, T/C (second compound 0.316 µM, first compound 0.00949 µM) 99.8% | viability, T/C (second compound 0.316 µM, first compound 0.03 µM) 100% | viability, T/C (second compound 0.316 µM, first compound 0.0949 µM) 89.9% | viability, T/C (second compound 0.316 µM, first compound 0.3 µM) 69.7% | viability, T/C (second compound 1 µM, first compound 0.000949 µM) 102% | viability, T/C (second compound 1 µM, first compound 0.003 µM) 97.8% | viability, T/C (second compound 1 µM, first compound 0.00949 µM) 99.3% | viability, T/C (second compound 1 µM, first compound 0.03 µM) 105% | viability, T/C (second compound 1 µM, first compound 0.0949 µM) 89.2% | viability, T/C (second compound 1 µM, first compound 0.3 µM) 64% | viability, T/C (second compound 3.16 µM, first compound 0.000949 µM) 96.1% | viability, T/C (second compound 3.16 µM, first compound 0.003 µM) 95.3% | viability, T/C (second compound 3.16 µM, first compound 0.00949 µM) 95.1% | viability, T/C (second compound 3.16 µM, first compound 0.03 µM) 97.7% | viability, T/C (second compound 3.16 µM, first compound 0.0949 µM) 94.2% | viability, T/C (second compound 3.16 µM, first compound 0.3 µM) 66.7% | viability, T/C (second compound 10 µM, first compound 0.000949 µM) 89% | viability, T/C (second compound 10 µM, first compound 0.003 µM) 94.2% | viability, T/C (second compound 10 µM, first compound 0.00949 µM) 91.4% | viability, T/C (second compound 10 µM, first compound 0.03 µM) 98.4% | viability, T/C (second compound 10 µM, first compound 0.0949 µM) 85.9% | viability, T/C (second compound 10 µM, first compound 0.3 µM) 61.9%

C=CC(=O)Nc1cc(Nc2nccc(-c3cn(C)c4ccccc34)n2)c(OC)cc1N(C)CCN(C)C + C=CC(=O)N1CCN(c2nc(OCC3CCCN3C)nc3c(F)c(-c4nc(N)cc(C)c4C(F)(F)F)c(Cl)cc23)C(C)C1
151 nM: IC50 (second compound 0.01 µM)
< 3.16 nM: IC50 (second compound 0.316 µM) | IC50 (second compound 1 µM)
54.3 nM: IC50 (second compound 0.0316 µM)
active: viability, T/C [6] 9.6% | viability, T/C [12] 8.81% | viability, T/C [18] 8.93% | viability, T/C [23] 8.42% | viability, T/C [24] 8.07% | viability, T/C [30] 9.33% | viability, T/C [36] 9.84%
194 nM: IC50 (second compound 0.00316 µM)
10.5 nM: IC50 (second compound 0.1 µM)
inactive: viability, T/C [1] 93.5% | viability, T/C [2] 85.9% | viability, T/C [3] 91% | viability, T/C [4] 83.5% | viability, T/C [5] 25.5% | viability, T/C [7] 94.4% | viability, T/C [8] 78% | viability, T/C [9] 85.2% | viability, T/C [10] 71.3% | viability, T/C [11] 11.4% | viability, T/C [13] 70.3% | viability, T/C [14] 70.4% | viability, T/C [15] 63.6% | viability, T/C [16] 34.3% | viability, T/C [17] 9.39% | viability, T/C [19] 56.3% | viability, T/C [20] 47.9% | viability, T/C [21] 38.7% | viability, T/C [22] 17.6% | viability, T/C [25] 39% | viability, T/C [26] 34.4% | viability, T/C [27] 29.3% | viability, T/C [28] 13.7% | viability, T/C [29] 10.3% | viability, T/C [31] 30.4% | viability, T/C [32] 27.1% | viability, T/C [33] 22.6% | viability, T/C [34] 13.8% | viability, T/C [35] 10.9%

CC(Nc1ccc2c(c1)OCCn1cc(N3C(=O)OCC3C(F)F)nc1-2)C(N)=O (stereo not drawn) + C=CC(=O)N1CCN(c2nc(OCC3CCCN3C)nc3c(F)c(-c4nc(N)cc(C)c4C(F)(F)F)c(Cl)cc23)C(C)C1
73.8 nM: IC50 (second compound 0.1 µM)
4560 nM: IC50 (second compound 0.0316 µM)
< 31.6 nM: IC50 (second compound 0.316 µM) | IC50 (second compound 1 µM)
> 10000 nM: IC50 (second compound 0.00316 µM) | IC50 (second compound 0.01 µM)
inactive: viability, T/C [3] 92.5% | viability, T/C [4] 90.4% | viability, T/C [5] 81.7% | viability, T/C [6] 83.1% | viability, T/C (second compound 0.00316 µM, first compound 3.16 µM) 70% | viability, T/C (second compound 0.00316 µM, first compound 10 µM) 64.3% | viability, T/C [9] 85.4% | viability, T/C [10] 81.2% | viability, T/C [11] 78.5% | viability, T/C [12] 65.1% | viability, T/C (second compound 0.01 µM, first compound 3.16 µM) 59.8% | viability, T/C (second compound 0.01 µM, first compound 10 µM) 53.8% | viability, T/C [15] 69.5% | viability, T/C [16] 70.3% | viability, T/C [17] 62.7% | viability, T/C [18] 51.4% | viability, T/C (second compound 0.0316 µM, first compound 3.16 µM) 53.7% | viability, T/C (second compound 0.0316 µM, first compound 10 µM) 46.9% | viability, T/C [21] 53.9% | viability, T/C [22] 47.4% | viability, T/C [23] 45% | viability, T/C [24] 39% | viability, T/C (second compound 0.1 µM, first compound 3.16 µM) 32.5% | viability, T/C (second compound 0.1 µM, first compound 10 µM) 28.8% | viability, T/C [27] 35.4% | viability, T/C [28] 32.5% | viability, T/C [29] 31.6% | viability, T/C [30] 22.4% | viability, T/C (second compound 0.316 µM, first compound 3.16 µM) 22.9% | viability, T/C (second compound 0.316 µM, first compound 10 µM) 16.6% | viability, T/C [33] 28.4% | viability, T/C [34] 28.2% | viability, T/C [35] 23.5% | viability, T/C [36] 18% | viability, T/C (second compound 1 µM, first compound 3.16 µM) 15.3% | viability, T/C (second compound 1 µM, first compound 10 µM) 14.5%

O=C(c1ccc(F)c(F)c1Nc1ccc(I)cc1F)N1CC(O)([C@@H]2CCCCN2)C1 + C=CC(=O)N1CCN(c2nc(OCC3CCCN3C)nc3c(F)c(-c4nc(N)cc(C)c4C(F)(F)F)c(Cl)cc23)C(C)C1
132 nM: IC50 (second compound 0.01 µM)
< 3.16 nM: IC50 (second compound 0.316 µM) | IC50 (second compound 1 µM)
8.9 nM: IC50 (second compound 0.1 µM)
active: viability, T/C [6] 2.87% | viability, T/C [11] 9.42% | viability, T/C [12] 3.09% | viability, T/C [17] 7.27% | viability, T/C [18] 2.63% | viability, T/C [23] 5.51% | viability, T/C [24] 2.39% | viability, T/C [29] 4.66% | viability, T/C [30] 2.41% | viability, T/C [35] 5% | viability, T/C [36] 2.46%
inactive: viability, T/C [1] 91.1% | viability, T/C [2] 96.7% | viability, T/C [3] 87.9% | viability, T/C [4] 78.3% | viability, T/C [5] 13.7% | viability, T/C [7] 86.3% | viability, T/C [8] 77.6% | viability, T/C [9] 81.8% | viability, T/C [10] 63.1% | viability, T/C [13] 72.8% | viability, T/C [14] 64.5% | viability, T/C [15] 63.2% | viability, T/C [16] 52.5% | viability, T/C [19] 55.2% | viability, T/C [20] 47.6% | viability, T/C [21] 39% | viability, T/C [22] 22.6% | viability, T/C [25] 34.2% | viability, T/C [26] 34.2% | viability, T/C [27] 21.5% | viability, T/C [28] 10.9% | viability, T/C [31] 27.9% | viability, T/C [32] 24.1% | viability, T/C [33] 16.3% | viability, T/C [34] 9.12%
106 nM: IC50 (second compound 0.0316 µM)
165 nM: IC50 (second compound 0.00316 µM)
